Read-outs that look alike come from different tables or passages of the source.
Legend:
human washed platelets [1] = assay: Platelet aggregation triggered by arachidonic acid (light transmittance aggregometry); assay type: cell-based; conditions: for Effect on arachidonic acid-dependent platelet aggregation: 25 μM arachidonic acid, human washed platelets; for Plt aggregation IC50 ± S.E.M / IC50: human washed platelets 0.4 x 10^9 plt/ml, inhibitor 1 min before 25 μM arachidonic acid, n = 3–4; for IC50: read-out: Plt aggregation IC50 ± S.E.M
Experimental: Figure 2 Aggregation curves of inhibitory compounds. Platelet aggregation was performed on human washed platelets. Platelets (0.4 × 10^9 plt/ml) were treated with increasing concentrations of each inhibitor for 1 min prior to the addition of 25 μM of arachidonic acid for 2 min. Results represent aggregation curves of compound 3 (A), compound 4 (B), compound 7 (C), compound 8 (D), and compound 9 (E). Aggregation curves are representative of at least 4 experiments with similar results.
Slopes of aggregation curves were analyzed by Grafit 7 software and inhibition curves were obtained. (A) represents compounds of type I and (B) compounds of type II. […] Results correspond to mean ± S.E.M. for 3–5 experiments.
(§1) Venous blood was obtained from healthy volunteers who had not ingested any drugs for the last 14 days and after informed consent in accordance with the Institutional Review Board (IRB) of the American University of Beirut (Approval # BioCh.AH.03). Washed platelets were prepared as described previously. Briefly, 20 ml of peripheral blood was withdrawn on ACD-C (1 volume for 9 volumes of blood) and centrifuged at 120 g for 15 min at room temperature (RT) to obtain platelet-rich plasma. Platelet-rich plasma was further centrifuged at 1,200 g for 15 min at RT, and the platelet pellet obtained was washed by Tyrode buffer solution containing 0.1 μM of PGE1 and further centrifuged at 1,200 g for 15 min at RT. […] Aggregation of washed-platelets was determined using light transmittance aggregometry (Chrono-Log Corp., Havertown, PA). 400 μl of platelets (0.4 x 10^9plt/ml) were preincubated for 1 min at 37 °C in the absence or presence of inhibitors prior to the addition of 25 μM of arachidonic acid, which was controlled as optimal in our conditions. In some experiments, platelets were triggered with 1 μM U46619, a TX receptor agonist, or 0.5 μg/ml collagen, a concentration we checked in our conditions to induce COX-dependent platelet aggregation. TXB2 was measured in the supernatant by enzyme immunoassay.
(§2) Aggregation data were expressed after defining the slope for each aggregation curve, which better reflects the rate of the platelet reaction, using the Born’s method. Curve fitting and calculation of the IC50 values were done using Grafit 7 software (Erithacus software, Staines, UK). Results of TXB2 and PGE2 measurement were expressed as the mean ± S.E.M. for at least 3 different experiments and statistical analysis was performed using Sigma Plot (Systat Software Inc., San Jose, CA). Autoradiograms obtained from western blot analyses were scanned using Epson 1680 pro scanner and densitometric analysis was performed using Scion Image (Scion Corporation, MD).

human COX-1 = target: T1, human COX-1 (Homo sapiens, UniProt P23219); assay: COX-1 activity (PGE2 by enzyme immunoassay) in COS-7 cells overexpressing human COX-1; assay type: cell-based; conditions: COS-7 cells overexpressing human COX-1, 30 min compound then 25 μM arachidonic acid 30 min, n = 3-4, read-out: COX-1 activity IC50 ± S.E.M
T1 construct: expressed in transfected cells; host or cells: COS-7
Experimental: Figure 4 Inhibition of COX-1 activity. Human COX-1 was overexpressed in COS-7 cells. […] PGE2 was measured in the supernatant by enzyme immunoassay. Results were expressed as percentage of PGE2 in arachidonic acid treated samples which was attributed a value of 100. Fitting of curves was done using Grafit software. Results correspond to mean ± S.E.M. for 3 experiments. […] Insert represents Western blot analysis of COX-1 using selective monoclonal COX-1 in untransfected and pcDNA3-COX-1transfected cells.
as §2

human washed platelets [2] = assay: Platelet aggregation induced by collagen; assay type: cell-based; conditions: 0.5 μg/ml collagen
Experimental: Figure 6 Effect of inhibitory compounds on platelet aggregation and TXB2 level formation in response to collagen. […] TXB2 levels were measured in the supernatant of platelets (C). Results represent 3 experiments.
as §1

thromboxane receptor = target: T2, thromboxane receptor (Homo sapiens, UniProt P21731); assay: Platelet aggregation in response to TX receptor agonist U46619; assay type: cell-based; conditions: 50 μM compound, 1 μM U46619
T2 construct: Venous blood was obtained from healthy volunteers; endogenous in cells; host or cells: washed human blood platelets
T2 sequence (P21731 1-343): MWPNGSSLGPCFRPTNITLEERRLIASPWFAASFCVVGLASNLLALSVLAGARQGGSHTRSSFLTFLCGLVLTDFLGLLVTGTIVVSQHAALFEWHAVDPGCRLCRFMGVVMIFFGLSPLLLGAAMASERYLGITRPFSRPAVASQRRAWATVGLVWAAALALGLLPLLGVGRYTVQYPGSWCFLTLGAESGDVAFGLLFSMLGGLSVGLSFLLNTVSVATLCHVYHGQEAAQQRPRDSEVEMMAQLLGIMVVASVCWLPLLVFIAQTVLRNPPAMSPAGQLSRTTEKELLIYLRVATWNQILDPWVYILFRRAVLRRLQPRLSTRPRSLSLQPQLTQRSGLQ
Experimental: Figure 7 Effect of inhibitory compounds on platelet aggregation in response to TX receptor agonist, U46619. Platelets (0.4x 10^9 plt/ml) were pretreated with 50 μM of inhibitory compounds 3, 4, 7, 8 and 9 then triggered with 1 μM U46619, a thromboxane receptor agonist. Aggregation curves of compounds of type I (A) and type II (B) are representative of 2 experiments with similar results.
as §1

[3] = test system: COS-7 cells overexpressing COX-1; assay: WST-1 viability assay; conditions: 25 and 50 μM
Experimental: We used COS-7 cells overexpressing human COX-1. […] In these cells which express only COX-1, arachidonic acid is metabolized into prostaglandin (PG) H2 which will consequently breakdown into PGE2. Measurement of PGE2 under these conditions will reflect COX-1 activity [18, 19].
COS-7 cells were grown using DMEM-medium containing 10% fetal bovine serum (FBS). Cells were transfected in suspension with pcDNA3-COX-1 plasmid using FuGENE® 6 transfection reagent at a ratio of 3:1 (FuGENE: DNA, v/w) and then cultured in DMEM media + 10% FBS in 12-well plates. […] PGE2 was measured in the supernatants by enzyme immunoassay [23]. Cells were washed twice with PBS and lysed in lysis buffer. […] Briefly, SDS polyacrylamide electrophoresis was performed using 8% gels followed by protein transfer using a semi-dry transfer machine.

T1 sequence (P23219 24-599): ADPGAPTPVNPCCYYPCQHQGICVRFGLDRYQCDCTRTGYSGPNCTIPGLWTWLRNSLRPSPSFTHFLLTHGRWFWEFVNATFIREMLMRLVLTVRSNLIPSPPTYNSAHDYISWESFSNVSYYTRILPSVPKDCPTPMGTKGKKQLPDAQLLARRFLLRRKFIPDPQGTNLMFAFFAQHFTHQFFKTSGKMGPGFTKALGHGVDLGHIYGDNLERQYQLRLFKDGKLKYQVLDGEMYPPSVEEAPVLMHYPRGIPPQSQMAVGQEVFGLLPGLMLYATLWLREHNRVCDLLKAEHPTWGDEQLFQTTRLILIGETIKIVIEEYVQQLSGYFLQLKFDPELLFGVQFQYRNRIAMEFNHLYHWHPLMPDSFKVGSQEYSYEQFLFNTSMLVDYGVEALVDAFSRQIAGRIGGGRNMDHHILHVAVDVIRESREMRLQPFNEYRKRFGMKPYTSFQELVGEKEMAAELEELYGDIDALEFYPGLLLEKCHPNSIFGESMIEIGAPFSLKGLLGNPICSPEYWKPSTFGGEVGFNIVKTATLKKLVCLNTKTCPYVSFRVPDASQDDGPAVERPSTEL

Row | Plt aggregation IC50 ± S.E.M (human washed platelets [1]) | IC50 (human washed platelets [1]) | IC50 (human COX-1) | IC50 (human washed platelets [1]; Platelet) | SMILES | Effect on arachidonic acid-dependent platelet aggregation (human washed platelets [1]) | Platelet aggregation induced by collagen (human washed platelets [2]; 50 μM compound) | Thromboxane receptor-dependent platelet aggregation (thromboxane receptor) | Toxicity in WST-1 viability assay [3] | Platelet aggregation induced by collagen (human washed platelets [2]; 25 μM ibuprofen)
1 |  | 97.6 ± 83.5 µM |  |  | CCCCCCCCCC(O)c1ccc(O)c(OC)c1 (stereo not drawn) [Compound 5] | loss of the inhibitory activity |  |  |  | 
2 |  | 14.2 ± 5.7 µM | 12.1 ± 2.3 µM |  | CCCCC(O)c1ccc(O)c(OC)c1 (stereo not drawn) [Compound 4] |  | blocked platelet aggregation induced by collagen | None of the compounds 3, 4, 7, 8 and 9 were able to act | absence of toxicity | 
3 |  | 13.4 ± 0.5 µM | 6.5 ± 0.2 µM |  | COc1cc(C(O)c2ccc(F)cc2)ccc1O (stereo not drawn) [Compound 8] | significant inhibitory activities | blocked platelet aggregation induced by collagen | None of the compounds 3, 4, 7, 8 and 9 were able to act | absence of toxicity | 
4 |  | 41.2 ± 0.7 µM |  |  | COc1cc(C(O)C2CCCC2)ccc1O (stereo not drawn) [Compound 6] | loss of the inhibitory activity |  |  |  | 
5 | No inhibition |  |  |  | CCCCCC(O)c1cccc(C=NO)c1 (stereo not drawn) [Compound 1] | no inhibitory effect |  |  |  | 
6 |  | 11.3 ± 4.8 µM | 8.1 ± 1.7 µM |  | COc1cc(C(C)(O)c2ccccc2)ccc1O (stereo not drawn) [Compound 9] |  | blocked platelet aggregation induced by collagen | None of the compounds 3, 4, 7, 8 and 9 were able to act | absence of toxicity | 
7 |  | 8.5 ± 1.2 µM | 1.3 ± 0.5 µM |  | COc1cc(C(O)c2ccccc2)ccc1O (stereo not drawn) [Compound 7] | significant inhibitory activities | blocked platelet aggregation induced by collagen | None of the compounds 3, 4, 7, 8 and 9 were able to act | absence of toxicity | 
8 | No inhibition |  |  |  | COc1ccc(C(O)c2ccccc2)cc1OC (stereo not drawn) [Compound 10] | completely abolished the inhibitory activity |  |  |  | 
9 |  |  |  | 0.5 ± 0.11 µM | CC(C)Cc1ccc(C(C)C(=O)O)cc1 (stereo not drawn) [Ibuprofen, reference compound] |  |  |  |  | strongly inhibited

Row | SMILES | Plt aggregation IC50 ± S.E.M (human washed platelets [1]) | IC50 (human washed platelets [1]) | IC50 (human COX-1) | IC50 (human washed platelets [1]; Platelet) | Effect on arachidonic acid-dependent platelet aggregation (human washed platelets [1]) | Platelet aggregation induced by collagen (human washed platelets [2]; 50 μM compound) | Thromboxane receptor-dependent platelet aggregation (thromboxane receptor) | Toxicity in WST-1 viability assay [3] | Platelet aggregation induced by collagen (human washed platelets [2]; 25 μM ibuprofen)
10 | CCCCCC(O)c1cccc(C(=O)O)c1 (stereo not drawn) [Compound 2] | No inhibition |  |  |  | no inhibitory effect |  |  |  | 
11 | CCCCCC(O)c1ccc(O)c(OC)c1 (stereo not drawn) [Compound 3] |  | 7.5 ± 0.8 µM | 2.2 ± 0.7 µM |  |  | blocked platelet aggregation induced by collagen | None of the compounds 3, 4, 7, 8 and 9 were able to act | absence of toxicity | 

From PMC3582601, “New analogues of 13-hydroxyocatdecadienoic acid and 12-hydroxyeicosatetraenoic acid block human blood platelet aggregation and cyclooxygenase-1 activity” (Chemistry Central Journal, 2012)
